“And” between values parts separate entries of the source, which are not always exact repeats. Equal entries are not always repeated. Where two headings read alike, the source gives them in different places.
Columns and labels:
[1] = biological target: CRM1 (Homo sapiens, UniProt O14980); assay: Nuclear export inhibition, fluorescent translocation biosensor in recombinant HeLa cells; assay type: cell-based; set-up: This cellular assay uses HeLa cells that express a recombinant fusion protein; endogenous in cells; host or cells: HeLa cells stably expressing the NLS-GST-GFP-RevNES translocation biosensor (HeLaRevBio); conditions: nuclear export inhibition IC50, HeLa cells expressing translocation biosensor, 1 h incubation
[2] = tested on: MCF-7; assay: cells; assay type: cell-based, human
Method: (§1) Biological evaluation of the compounds […]
(§2) serial dilutions of the test compound were given to 120 µL of suspended cells (50.000/mL) in wells of 96-well plates. After 5 days of incubation growth inhibition (IC50) was determined using an MTT assay.9
(§3) Table S1:Medium conditions for different cell types.
(§4) Cell type Medium Additives
(§5) L-929 (DSMZ ACC 2) DME medium (high glucose) (Gibco) 10% fetal calf serum (Gibco) SKOV-3 DSMZ ATCC HTB Mc Coys-Medium (Gibco) 10% fetal calf serum (Gibco) […]
(§6) A549 (DSMZ ACC 107) DME medium (high glucose) (Gibco) 10% fetal calf serum (Gibco)

[3] = tested on: SK-OV-3; assay: cells; assay type: cell-based, human; conditions: Homo sapiens, SK-OV-3, read-out: Antiproliferative activity IC50
Method: as §1, §2, §3, §4, §5, §6

[4] = tested on: A-549; assay: cells; assay type: cell-based, human
Method: as §1, §2, §3, §4, §5, §6

[5] = tested on: KB-3.1; assay: cells; assay type: cell-based, human
Method: as §1, §2, §3, §4, §5, §6

[6] = tested on: L-929; assay: Cell proliferation assay (MTT, 5 days); assay type: cell-based, murine
Method: as §1, §2, §3, §4, §5
A549 (DSMZ ACC 107) DME medium (high glucose) (Gibco) 10% fetal calf serum (Gibco) KB 3.1 (DSMZ ACC 158) DME medium (high glucose) (Gibco) 10% fetal calf serum (Gibco) Ratjadone Compound Antiproliferative activity IC50 [nM]
KB-3.1: human cervix carcinoma, KB-V1: multi-drug-resistant human cervix carcinoma, K-562: human chronic myelogenous leukemia cell, PC-3: human prostate carcinoma, L-929: murine fibroblast
Figure S8: Structures of Ratjadone A-D and their antiproliferative activity (IC50 values in nM). Data published by Köster et al.10

[7] = tested on: KB-3.1 cancer cells; assay: Cell proliferation assay under folate free conditions (MTT); assay type: cell-based, human; conditions: KB-3.1, folate receptor-positive, read-out: Antiproliferative activity IC50 of folate-ratjadone conjugates
Method: Cell proliferation assay under folate free conditions
KB 3.1 (DSMZ ACC 158) cells were cultivated at 37 °C and 10 % CO2 in RMPI-medium without folic acid (Gibco) with 10% fetal calf serum (Gibco). 120 µL of suspended cells (100.000/mL) were seeded in wells of 96-well plates and after 24 h at 37 °C and 10 % CO2 the medium was removed, the cells were washed with PBS and RPMI-medium without folic acid (Gibco) + 10% dialyzed fetal calf serum (Sigma) were added to the cells, before after additional 24 h at 37°C and 10 % CO2 60 µL of serial dilutions of the test compound were given to cells. After 1, 2 and 5 days of incubation growth inhibition (IC50) was determined using an […]

[8] = Homo sapiens, MCF7, read-out: Antiproliferative activity IC50, MCF-7 human breast carcinoma
[9] = Homo sapiens, A549, read-out: Antiproliferative activity IC50, A-549 human lung carcinoma
[10] = Homo sapiens, KB 3-1, read-out: Antiproliferative activity IC50, KB-3.1 human cervix carcinoma
[11] = L-929 murine fibroblast, read-out: Antiproliferative activity IC50
[12] = Mus musculus, L929, L-929 murine fibroblast, read-out: Antiproliferative activity IC50
[13] = KB 3-1, KB-3.1 human cervix carcinoma, read-out: Antiproliferative activity IC50
[14] = Mus musculus, L929, read-out: Antiproliferative activity IC50, L-929 murine fibroblast

Chain of CRM1 (O14980 whole entry, the tested form may be a part): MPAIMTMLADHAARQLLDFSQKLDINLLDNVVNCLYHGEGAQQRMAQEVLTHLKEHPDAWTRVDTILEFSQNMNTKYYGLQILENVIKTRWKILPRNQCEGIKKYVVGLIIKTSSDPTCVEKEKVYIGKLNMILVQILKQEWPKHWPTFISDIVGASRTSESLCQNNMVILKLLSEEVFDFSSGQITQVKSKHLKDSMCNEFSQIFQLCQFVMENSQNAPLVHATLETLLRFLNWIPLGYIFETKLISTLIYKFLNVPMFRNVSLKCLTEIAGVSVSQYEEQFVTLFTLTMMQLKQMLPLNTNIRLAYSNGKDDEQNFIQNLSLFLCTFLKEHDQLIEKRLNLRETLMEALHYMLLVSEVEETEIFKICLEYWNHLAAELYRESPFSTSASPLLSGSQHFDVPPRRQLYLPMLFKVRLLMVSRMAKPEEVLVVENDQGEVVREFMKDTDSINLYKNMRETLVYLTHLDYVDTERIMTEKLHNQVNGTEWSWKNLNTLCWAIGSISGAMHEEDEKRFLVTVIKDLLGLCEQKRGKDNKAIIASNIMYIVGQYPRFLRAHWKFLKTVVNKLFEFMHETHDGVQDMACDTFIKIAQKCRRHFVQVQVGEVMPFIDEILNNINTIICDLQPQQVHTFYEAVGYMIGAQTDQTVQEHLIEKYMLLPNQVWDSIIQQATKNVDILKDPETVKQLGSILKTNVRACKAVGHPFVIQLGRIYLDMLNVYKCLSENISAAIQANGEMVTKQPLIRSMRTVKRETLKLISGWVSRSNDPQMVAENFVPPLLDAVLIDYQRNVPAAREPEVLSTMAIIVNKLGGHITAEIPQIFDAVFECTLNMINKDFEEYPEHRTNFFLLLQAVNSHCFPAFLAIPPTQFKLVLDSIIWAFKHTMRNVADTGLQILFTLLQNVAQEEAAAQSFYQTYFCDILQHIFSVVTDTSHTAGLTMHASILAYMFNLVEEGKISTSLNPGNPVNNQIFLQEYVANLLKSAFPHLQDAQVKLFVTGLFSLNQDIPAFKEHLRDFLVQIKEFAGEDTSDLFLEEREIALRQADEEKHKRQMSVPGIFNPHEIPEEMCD

SMILES | IC50 [1] | IC50 [2, 8] [nM] | IC50 [3] [nM] | IC50 [4, 9] [nM] | IC50 [5, 10] [nM] | IC50 [7] [nM] | further results
C/C=C/[C@@H]1O[C@H]([C@@H](/C=C/C=C(\C)C[C@@H](C)/C=C(C)\C=C\[C@H]2CC=CC(=O)O2)NC(=O)CCSSc2ccccn2)C[C@@H](O)[C@@H]1C [Compound 31, 2-PySS(CH2)2(CO)-16R-Aminoratjadone] | 44.1 nM | 26 | 24.6 | 30.6 | 8.8 |  | 
C/C=C/[C@@H]1O[C@H]([C@@H](N)/C=C/C=C(\C)C[C@@H](C)/C=C(C)\C=C\[C@H](O)CC(N)CC(=O)OC)C[C@@H](O)[C@@H]1C (stereo partly drawn) [Compound 19] |  |  |  |  |  |  | IC50 [6, 11]: 1320 nM; IC50 [6, 12]: 1320 nM; IC50 [5, 13]: 165 nM
C#CCCC(=O)N[C@H](/C=C/C=C(\C)C[C@@H](C)/C=C(C)\C=C\[C@H]1CC=CC(=O)O1)[C@@H]1C[C@@H](O)[C@H](C)[C@H](/C=C/C)O1 [Compound 20] | 23.2 nM | 0.4 | 0.44 | 0.58 | 1.05 |  | 
C/C=C/[C@@H]1O[C@H]([C@H](O)/C=C/C=C(\C)C[C@@H](C)/C=C(C)\C=C\[C@H]2CC=CC(=O)O2)CC(N)[C@@H]1C (stereo partly drawn) [Compound 33, 19-aminoratjadone] | 70 nM | 2.1 | 1.4 | 4.39 | 6.67 |  | 
C/C=C/[C@@H]1O[C@H]([C@H](N)/C=C/C=C(\C)C[C@@H](C)/C=C(C)\C=C\[C@H]2CC=CC(=O)O2)C[C@@H](O)[C@@H]1C [Compound 16, 16R-aminoratjadone] | 2.7 nM | 0.26 | 0.61 | 0.31 | 0.39 |  | IC50 [6, 14]: 4.61 nM
C/C=C/[C@@H]1O[C@H]([C@H](O)/C=C/C=C(\C)C[C@@H](C)/C=C(C)\C=C\[C@H]2CC=CC(=O)O2)CC(=O)[C@@H]1C [Compound 14, 19-oxoratjadone] | 13.3 nM | 0.48 | 0.16 | 0.1 | 0.36 |  | IC50 [6, 14]: 1.15 nM
C/C=C/[C@@H]1O[C@H]([C@@H](/C=C/C=C(\C)C[C@@H](C)/C=C(C)\C=C\[C@H]2CC=CC(=O)O2)NC(=O)OCc2ccc(NC(=O)[C@H](CCCNC(N)=O)NC(=O)[C@@H](NC(=O)OCC3C4CCc5nnn(-c6ccc(C(=O)NCCCC[C@H](NC(=O)CC[C@H](NC(=O)CC[C@H](NC(=O)c7ccc(NCc8cnc9nc(N)[nH]c(=O)c9n8)cc7)C(=O)O)C(=O)O)C(=O)OC)cc6)c5CCC43)C(C)C)cc2)C[C@@H](O)[C@@H]1C (stereo partly drawn) [FA-1-Val-Cit-pABA-16R-aminoratjadone] |  |  |  |  |  | 169 | IC50 ([7]; listed as FA-1-Val-Cit-pABA-16R-Aminoratjadone): 169 nM
C/C=C/[C@@H]1O[C@H]([C@H](N)/C=C/C=C(\C)C[C@@H](C)/C=C(C)\C=C\[C@H](O)CC(N)CC(=O)OC)C[C@@H](O)[C@@H]1C (stereo partly drawn) [Compound 18] |  |  |  |  |  |  | IC50 [6, 11]: 3310 nM; IC50 [6, 12]: 3310 nM; IC50 [5, 13]: 116 nM
C/C=C/[C@@H]1O[C@H]([C@@H](/C=C/C=C(\C)C[C@@H](C)/C=C(C)\C=C\[C@H]2CC=CC(=O)O2)NC(=O)CCSSC[C@H](NC(=O)CC[C@H](NC(=O)c2ccc(NCc3cnc4nc(N)nc(O)c4n3)cc2)C(=O)O)C(=O)O)C[C@@H](O)[C@@H]1C [FA-SS-16R-aminoratjadone] |  |  |  |  |  | 295 | IC50 ([7]; listed as FA-SS-16R-Aminoratjadone): 295 nM
C/C=C/[C@@H]1O[C@H]([C@@H](/C=C/C=C(\C)C[C@@H](C)/C=C(C)\C=C\[C@H]2CC=CC(=O)O2)NC(=O)OCc2ccc(NC(=O)[C@H](CCCNC(N)=O)NC(=O)[C@@H](NC(=O)OCC3C4CCc5nnn(CCC[C@H](NC(=O)[C@@H](CC(=O)O)NC(=O)[C@@H](CC(=O)O)NC(=O)[C@H](CCCn6nnc7c6CCC6C(CC7)C6COC(=O)N[C@H](C(=O)N[C@@H](CCCNC(N)=O)C(=O)Nc6ccc(COC(=O)N[C@H](/C=C/C=C(\C)C[C@@H](C)/C=C(C)\C=C\[C@H]7CC=CC(=O)O7)[C@@H]7C[C@@H](O)[C@H](C)[C@H](/C=C/C)O7)cc6)C(C)C)NC(=O)[C@@H](CC(=O)O)NC(=O)[C@@H](CC(=O)O)NC(=O)[C@H](CCCn6nnc7c6CCC6C(CC7)C6COC(=O)N[C@H](C(=O)N[C@@H](CCCNC(N)=O)C(=O)Nc6ccc(COC(=O)N[C@H](/C=C/C=C(\C)C[C@@H](C)/C=C(C)\C=C\[C@H]7CC=CC(=O)O7)[C@@H]7C[C@@H](O)[C@H](C)[C@H](/C=C/C)O7)cc6)C(C)C)NC(=O)[C@@H](CC(=O)O)NC(=O)[C@@H](CC(=O)O)NC(=O)CC[C@H](NC(=O)c6ccc(NCc7cnc8nc(N)nc(O)c8n7)cc6)C(=O)O)C(=O)O)c5CCC43)C(C)C)cc2)C[C@@H](O)[C@@H]1C (stereo partly drawn) [FA-11-(Val-Cit-pABA-16R-aminoratjadone)3] |  |  |  |  |  | 45 | 
CC=CC1OC(C(C=CC=C(C)CC(C)C=C(C)C=CC2CC=CC(=O)O2)NC(=O)OCc2ccc(NC(=O)C(CCCNC(N)=O)NC(=O)C(NC(=O)OCC3C4CCC#CCCC43)C(C)C)cc2)CC(O)C1C (stereo not drawn) [Compound 25, BCN-O(CO)HN-Val-Cit-pABO(CO)-16R-Aminoratjadone] | 246 nM and 346 nM | 20.2 | 34.7 | 39.5 | 25.1 |  | IC50 ([2]; read-out: Antiproliferative activity IC50, MCF-7 human breast carcinoma): 20.2 nM; IC50 ([4]; read-out: Antiproliferative activity IC50, A-549 human lung carcinoma): 39.5 nM; IC50 ([5]; read-out: Antiproliferative activity IC50, KB-3.1 human cervix carcinoma): 25.1 nM
C/C=C/[C@@H]1O[C@H]([C@@H](/C=C/C=C(\C)C[C@@H](C)/C=C(C)\C=C\[C@H]2CC=CC(=O)O2)NC(=O)OCCc2cn(-c3ccc(C(=O)NCCCC[C@H](NC(=O)CC[C@H](NC(=O)CC[C@H](NC(=O)c4ccc(NCc5cnc6nc(N)nc(O)c6n5)cc4)C(=O)O)C(=O)O)C(=O)O)cc3)nn2)C[C@@H](O)[C@@H]1C [FA-6-L-16R-aminoratjadone] |  |  |  |  |  | 150 | IC50 ([7]; listed as FA-6-L-16R-Aminoratjadone): 150 nM
C/C=C/[C@@H]1O[C@H]([C@@H](/C=C/C=C(\C)C[C@@H](C)/C=C(C)\C=C\[C@H]2CC=CC(=O)O2)NC(=O)OCCc2cn(CCC[C@H](NC(=O)CC[C@H](NC(=O)CC[C@H](NC(=O)c3ccc(NCc4cnc5nc(N)[nH]c(=O)c5n4)cc3)C(=O)O)C(=O)O)C(=O)O)nn2)C[C@@H](O)[C@@H]1C [FA-7-L-16R-aminoratjadone] |  |  |  |  |  | 190 | IC50 ([7]; listed as FA-7-L-16R-Aminoratjadone): 190 nM
C#CCCOC(=O)N[C@@H](/C=C/C=C(\C)C[C@@H](C)/C=C(C)\C=C\[C@H]1CC=CC(=O)O1)[C@@H]1C[C@@H](O)[C@H](C)[C@H](/C=C/C)O1 [Compound 22] | 12 nM | 0.62 | 1.2 | 2.45 | 1.23 |  | 
C#CCNC1C[C@@H]([C@H](O)/C=C/C=C(\C)C[C@@H](C)/C=C(C)\C=C\[C@H]2CC=CC(=O)O2)O[C@@H](/C=C/C)[C@H]1C (stereo partly drawn) [Compound 35, N-Propargyl-19-aminoratjadone] | 18.3 nM | 1.31 | 2.63 | 1.12 | 1.23 |  | 

Reference: article PMC6540907, “The nuclear export inhibitor aminoratjadone is a potent effector in extracellular-targeted drug conjugates” (Chemical Science, 2019)
